Data published in patent publication US8747810B2, “Compositions and methods for imaging tissues, organs and tumors” (President and Fellows of Harvard College, priority 2009, dated 2014).

What was measured:
5HT1A receptor = biological target: T1, 5HT1A receptor (Rattus norvegicus, UniProt P19327); assay: 5HT1A receptor competition binding assay, [3H]-8-OH-DPAT, rat hippocampus; conditions: quantity not named in table head; methods calculate apparent Ki (Cheng-Prusoff); read-out: 5HT1A
T1 construct: hippocampal homogenates that were prepared from Sprague Dawley rat hippocampus; from tissue; host or cells: rat (Sprague-Dawley) hippocampus membranes
T1 sequence (P19327 1-422): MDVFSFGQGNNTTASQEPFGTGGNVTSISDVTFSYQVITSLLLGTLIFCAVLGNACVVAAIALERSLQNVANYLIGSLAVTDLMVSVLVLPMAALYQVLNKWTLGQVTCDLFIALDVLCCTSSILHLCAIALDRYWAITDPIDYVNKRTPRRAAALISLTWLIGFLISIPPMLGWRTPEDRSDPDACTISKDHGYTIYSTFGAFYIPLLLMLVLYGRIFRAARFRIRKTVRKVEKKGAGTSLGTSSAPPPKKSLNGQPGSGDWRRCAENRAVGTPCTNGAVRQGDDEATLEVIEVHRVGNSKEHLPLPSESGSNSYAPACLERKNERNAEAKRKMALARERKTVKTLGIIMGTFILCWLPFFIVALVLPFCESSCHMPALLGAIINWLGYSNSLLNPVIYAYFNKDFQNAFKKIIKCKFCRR
Method: The in vitro 5HT1A binding affinities of rhenium coordinated complexes were determined in a competition assay using rat hippocampus and high-affinity 5HT1A-ligand [^3H]-8-OH-DPAT (135 Ci/mmol, NEN Life Science Inc., Cambridge, Mass.). See, Brain Res. 1995, 673, 217-225.
Male Sprague-Dawley rats (weighing 150-170 g) were sacrificed using anesthesia agent isoflurane. The brains were rapidly removed, and hippocampus, frontal cortex, hypothalamus, and striatum were hand-dissected on ice and stored at −70° C. Tissue was thawed at room temperature and homogenized using a Brinkmann Polytron tissue disrupter in 50 volumes (wt/vol) of ice-cold 50 mM Tris-HCl buffer (pH 7.4). The suspension was centrifuged twice at 27,000 g for 20 min at 4° C. The membrane pellets were resuspended in 50 volumes of (wt/vol) Tris-HCl buffer and incubated at 37° C. for 20 min in a water bath, before a final centrifugation step (27,000 g; 20 min; 4° C.). The final tissue pellets were stored at −70° C. until assayed.
Twelve concentrations of the nonradioactive rhenium complexes ranging from 1×10^−11 to 1×10^−4 and protein samples (0.15 mg of membrane protein) were incubated with 1.5 nM [^3H]-8-OH-DPAT in a total volume of 0.25 mL of Tris-HCl (50 mM, pH 7.4, 10 mM MgSO4). Incubations were carried out for 60 min at 25° C. All assays were terminated by dilution with 5 mL of ice-cold Tris-HCl (10 mM), pH 7.4, and solution were filtered through glass-fiber filters (Whatman GF/F; presoaked in 0.5% polyethyleneimine for 30 min at 25° C.). Filters were then washed three times with 5 mL of ice-cold Tris-HCl (50 mM, pH 7.4), and counted in Hionic-Fluor cocktail (Packard, Groningen, the Netherlands). The corresponding IC50 values were determined with Origin 6.0 software (OriginLab, Northampton, Mass.) and were used for the calculation of the apparent Ki values with the Cheng-Prusoff equation. See, Biochem. Pharmacol. 1973, 22, 3099-3108.
Rhenium complexes were synthesized by the reaction of [ReBr(CO)3(C4H8O)]2 with the final ligands in acetonitrile at room temperature. The in vitro 5-HT1A binding affinities of complexes Re(CO)3-L1-L9 were determined in competitive receptor binding assay using hippocampal homogenates that were prepared from Sprague Dawley rat hippocampus and the high-affinity [^3H]-8-OH-DPAT as the 5HT1A specific ligand.
The in vitro affinity of Re(CO)3-L complexes for the 5-HT1A receptors were assessed by their ability to compete with the high affinity 5HT1A radioligand [^3H]-8-OH-DPAT.

B16 melanoma nodules = assay: In vivo biodistribution and tumor uptake of 99mTc complexes in C57B16 mice with B16 melanoma nodules; conditions: for mel/blood: melanoma/blood ratio; for mel/liver: melanoma/liver ratio; for mel/lung: melanoma/lung ratio; for mel/spleen: melanoma/spleen ratio
Method: The biodistribution data including melanoma/nontumor (M/NT) ratios for selected organs, summarized in Table 1 as percentage injected dose per gram (% ID/g)
To study the tumor uptake of radiolabeled metal complexes, in vivo, biodistribution experiments at 1 h after their administration were carried out in C57B16 male mice with palpable B16 melanoma nodules.

Q: For CCCN(CCCN1CC[S][Re]2(=[O])[S]CC[N]2C(=O)C1)C1CCc2c(cccc2OC)C1 (stereo not shown) [Re-46], which Ki (5HT1A receptor) is on record?
A: Its Ki is 91.3 ± 4.1 nM.

Q: Which Ki (5HT1A receptor) does the source give for COc1ccccc1C1CCN(CCCCCC[N+]23CC[N+](C)(C)[Re-2]2(=[C]=O)(=[C]=O)(=[C]=O)[O]c2ccccc2C3)CC1 (stereo not shown) [Re-L17b] here?
A: Its Ki is 18 ± 8 nM.

Q: With CCCN(CCCN1CC[S][Re]2(=[O])[S]CC[N]2C(=O)C1)C1CCc2c(O)cccc2C1 (stereo not shown) [Re-46 HO] as the compound, how does the Ki (5HT1A receptor) read?
A: Its Ki is 81.4 ± 5.24 nM.

Q: CCN(CC)CC[N+]12CC[S][99Tc-]13(=[O])[S]CC[N]3C(=O)C2 (stereo not shown) [[TcOAADT]-C2—N(Et)2, [^99mTcOAADT]-(CH2)2—N(Et2), reference compound] was tested. Which blood (B16 melanoma nodules; 1 h postinjection) did it give?
A: Its blood is 1.00 ± 0.46 % ID/g.

Q: And the brain (B16 melanoma nodules; 1 h postinjection)?
A: The brain was 0.30 ± 0.10 % ID/g.

Q: What about the heart (B16 melanoma nodules; 1 h postinjection) of the same compound?
A: Its heart is 0.82 ± 0.37 % ID/g.

Q: And the kidney (B16 melanoma nodules; 1 h postinjection)?
A: Its kidney is 5.53 ± 0.81 % ID/g.

Q: What about the liver (B16 melanoma nodules; 1 h postinjection) of the same compound?
A: Its liver is 12.7 ± 1.54 % ID/g.

Q: And the lung (B16 melanoma nodules; 1 h postinjection)?
A: The lung was 1.40 ± 0.49 % ID/g.

Q: What about the “melanoma (tumor uptake)” value (B16 melanoma nodules; 1 h postinjection) of the same compound?
A: Its value is 7.62 ± 0.62 % ID/g.

Q: And the muscle (B16 melanoma nodules; 1 h postinjection)?
A: Its muscle is 0.35 ± 0.21 % ID/g.

Q: What about the spleen (B16 melanoma nodules; 1 h postinjection) of the same compound?
A: The spleen was 1.83 ± 0.55 % ID/g.

Q: What about the mel/blood (B16 melanoma nodules; 1 h postinjection) of the same compound?
A: Its mel/blood is 7.6 ± 0.54.

Q: And the mel/liver (B16 melanoma nodules; 1 h postinjection)?
A: The mel/liver was 0.6 ± 0.09.

Q: What about the mel/lung (B16 melanoma nodules; 1 h postinjection) of the same compound?
A: The mel/lung was 5.4 ± 0.60.

Q: What about the mel/spleen (B16 melanoma nodules; 1 h postinjection) of the same compound?
A: Its mel/spleen is 4.2 ± 0.58.

Q: And the blood (B16 melanoma nodules; 6 h postinjection)?
A: Its blood is 0.32 ± 0.19 % ID/g.

Q: And the brain (B16 melanoma nodules; 6 h postinjection)?
A: The brain was 0.05 ± 0.02 % ID/g.

Q: What about the heart (B16 melanoma nodules; 6 h postinjection) of the same compound?
A: The heart was 0.11 ± 0.02 % ID/g.

Q: And the kidney (B16 melanoma nodules; 6 h postinjection)?
A: The kidney was 1.98 ± 0.21 % ID/g.

Q: And the liver (B16 melanoma nodules; 6 h postinjection)?
A: The liver was 4.08 ± 0.92 % ID/g.

Q: And the lung (B16 melanoma nodules; 6 h postinjection)?
A: Its lung is 0.47 ± 0.21 % ID/g.

Q: What about the “melanoma (tumor uptake)” value (B16 melanoma nodules; 6 h postinjection) of the same compound?
A: The value was 3.45 ± 1.2 % ID/g.

Q: What about the muscle (B16 melanoma nodules; 6 h postinjection) of the same compound?
A: Its muscle is 0.08 ± 0.01 % ID/g.

Q: And the spleen (B16 melanoma nodules; 6 h postinjection)?
A: The spleen was 0.34 ± 0.10 % ID/g.

Q: And the mel/blood (B16 melanoma nodules; 6 h postinjection)?
A: Its mel/blood is 10.8 ± 1.00.

Q: What about the mel/liver (B16 melanoma nodules; 6 h postinjection) of the same compound?
A: The mel/liver was 0.9 ± 0.35.

Q: What about the mel/lung (B16 melanoma nodules; 6 h postinjection) of the same compound?
A: Its mel/lung is 7.3 ± 0.98.

Q: And the mel/spleen (B16 melanoma nodules; 6 h postinjection)?
A: The mel/spleen was 10.1 ± 1.11.

Q: And the “tumor uptake and retention (in words)” value (B16 melanoma nodules; over time)?
A: Its value is “significant washout from the tumor over time”.

Q: Which Ki (5HT1A receptor) does the source give for COc1ccccc1C1CCN(CCCCCC[N+]23CC[NH2+][Re-2]2(=[C]=O)(=[C]=O)(=[C]=O)[O]c2ccccc2C3)CC1 (stereo not shown) [Re-L17a] here?
A: Its Ki is 48 ± 5 nM.
